For 15 molecules, IC50 results are on record in US20240360178A1, “MACROCYCLIC IMMUNOMODULATORS” (Bristol-Myers Squibb Company, priority 2021, published 2024).

Positions of bridges follow the written chain, without caps; N, C: chain ends. Non-standard residues stand in square brackets, D forms with d. Residues, ends and D or L forms follow the SMILES beside them. *: point of attachment. Phe(4-COOH) = N[C@@H](Cc1ccc(C(=O)O)cc1)C(=O)O; Bip = N[C@@H](Cc1ccc(-c2ccccc2)cc1)C(=O)O; Phe(3-CN) = N#Cc1cccc(C[C@H](N)C(=O)O)c1; Phe(3-OMe) = COc1cccc(C[C@H](N)C(=O)O)c1; 4Pal = N[C@@H](Cc1ccncc1)C(=O)O; Carboxymethyl = O=C(O)C*; NMeA = CN[C@@H](C)C(=O)O; Orn = NCCC[C@H](N)C(=O)O; Dab = NCC[C@H](N)C(=O)O; Dap = NC[C@H](N)C(=O)O; Sar = CNCC(=O)O

For the assay, the target named is T1, human PD-1 (Jurkat-PD-1 cells) / PE-labeled human PD-L1-Ig (Homo sapiens, UniProt Q15116).
T1 construct: expressed in transfected cells; host or cells: Jurkat cell line over-expressing human PD-1
T1 sequence (Q15116 25-288): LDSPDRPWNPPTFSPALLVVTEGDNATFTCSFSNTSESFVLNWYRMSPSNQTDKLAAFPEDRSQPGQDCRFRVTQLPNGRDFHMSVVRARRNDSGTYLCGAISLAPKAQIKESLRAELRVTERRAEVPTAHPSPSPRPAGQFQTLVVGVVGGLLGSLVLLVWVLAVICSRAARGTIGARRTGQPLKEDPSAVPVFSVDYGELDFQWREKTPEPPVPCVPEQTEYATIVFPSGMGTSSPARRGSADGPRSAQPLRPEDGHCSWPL
Nature of the assay: Jurkat-PD-1 Cell Binding High-Content Screening Assay (CBA); Jurkat hPD1-PDL1 assay. To be noted: Jurkat cell line over-expressing human PD-1; PE-labeled PD-L1-Ig 20 nM final; compound incubated 2 hours at 37° C.; read-out: Jurkat HPD1-PDL1 IC50. A digest of the protocol: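 Jurkat cells overexpressing human PD-1 (8×10^3 per well, DMEM with 10% FCS) were preincubated with compound for 2 hours at 37° C. PE-labeled human PD-L1-Ig was then added at 20 nM final. Binding was quantified by high-content imaging.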
`CC(C)C[C@@H]1NC(=O)[C@H](Cc2c[nH]c3ccccc23)NC(=O)[C@H](CC(=O)O)NC(=O)[C@H](Cc2ccc(OCC(=O)O)cc2)NC(=O)[C@H](CN)NC(=O)CSC[C@@H](C(=O)N[C@@H](C)C(N)=O)NC(=O)[C@H](CO)NC(=O)[C@H](C(C)C)NC(=O)[C@H](CC(C)C)NC(=O)[C@H](CC(N)=O)NC(=O)[C@H]2CCCN2C(=O)[C@H](C)N(C)C(=O)[C@H](C(C)C)NC(=O)[C@H](Cc2ccc(-c3ccccc3)cc2)NC1=O` [Example 1386] ({CH2CO}-[Dap]Y(Carboxymethyl)DWL[Bip]V[NMeA][dP]NLVSCA-NH2; thioether N-14): the IC50 – broadly, the concentration at which inhibition is half-maximal – amounted to 140 nM.

Consider `COc1cccc(C[C@@H]2NC(=O)[C@H](CC(=O)O)NC(=O)[C@H](Cc3ccc(C(=O)O)cc3)NC(=O)[C@H](Cc3ccncc3)NC(=O)CSC[C@@H](C(=O)N[C@@H](C)C(N)=O)NC(=O)[C@H](CO)NC(=O)[C@H](C(C)C)NC(=O)[C@H](CC(C)C)NC(=O)[C@H](CC(N)=O)NC(=O)[C@H]3CCCN3C(=O)[C@H](C)N(C)C(=O)[C@H](C(C)C)NC(=O)[C@H](Cc3ccc(-c4ccccc4)cc3)NC(=O)[C@H](CC(C)C)NC2=O)c1` [Example 1387] ({CH2CO}-[4Pal][Phe(4-COOH)]D[Phe(3-OMe)]L[Bip]V[NMeA][dP]NLVSCA-NH2; thioether N-14), for which the half-inhibitory concentration (IC50) was found to be 10 nM.

For `COc1cccc(C[C@@H]2NC(=O)[C@H](CC(=O)O)NC(=O)[C@H](Cc3cccc(C#N)c3)NC(=O)[C@H](Cc3ccncc3)NC(=O)CSC[C@@H](C(=O)N[C@@H](C)C(N)=O)NC(=O)[C@H](CO)NC(=O)[C@H](C(C)C)NC(=O)[C@H](CC(C)C)NC(=O)[C@H](CC(N)=O)NC(=O)[C@H]3CCCN3C(=O)[C@H](C)N(C)C(=O)[C@H](C(C)C)NC(=O)[C@H](Cc3ccc(-c4ccccc4)cc3)NC(=O)[C@H](CC(C)C)NC2=O)c1` [Example 1388] ({CH2CO}-[4Pal][Phe(3-CN)]D[Phe(3-OMe)]L[Bip]V[NMeA][dP]NLVSCA-NH2; thioether N-14), the IC50 is 20 nM. As for `CC(C)C[C@@H]1NC(=O)[C@H](CC(N)=O)NC(=O)[C@H]2CCCN2C(=O)[C@H](C)N(C)C(=O)[C@H](C(C)C)NC(=O)[C@H](Cc2ccc(-c3ccccc3)cc2)NC(=O)[C@@H](CC(C)C)NC(=O)[C@H](Cc2c[nH]c3ccccc23)NC(=O)[C@H](CC(=O)O)NC(=O)[C@H](Cc2ccc(C(=O)O)cc2)NC(=O)[C@H](Cc2ccncc2)NC(=O)CSC[C@@H](C(=O)N[C@@H](C)C(N)=O)NC(=O)[C@@H](CO)NC(=O)[C@H](C(C)C)NC1=O` [Example 1389] ({CH2CO}-[4Pal][Phe(4-COOH)]DW[dL][Bip]V[NMeA][dP]NLV[dS]CA-NH2; thioether N-14), the IC50 came out at 50 nM. On to `CC(C)C[C@@H]1NC(=O)[C@H](Cc2c[nH]c3ccccc23)NC(=O)[C@H](CC(=O)O)NC(=O)[C@H](Cc2ccc(C(=O)O)cc2)NC(=O)[C@H](CN)NC(=O)CSC[C@@H](C(=O)N[C@@H](C)C(N)=O)NC(=O)[C@H](CO)NC(=O)[C@H](C(C)C)NC(=O)[C@H](CC(C)C)NC(=O)[C@H](CC(N)=O)NC(=O)[C@H]2CCCN2C(=O)[C@H](C)N(C)C(=O)[C@H](C(C)C)NC(=O)[C@H](Cc2ccc(-c3ccccc3)cc2)NC1=O` [Example 1390] ({CH2CO}-[Dap][Phe(4-COOH)]DWL[Bip]V[NMeA][dP]NLVSCA-NH2; thioether N-14), for which the half-inhibitory concentration (IC50) was determined as 20 nM. On to `CC(C)C[C@@H]1NC(=O)[C@H](Cc2c[nH]c3ccccc23)NC(=O)[C@H](CC(=O)O)NC(=O)[C@H](Cc2ccc(OCC(=O)O)cc2)NC(=O)[C@H](Cc2ccncc2)NC(=O)CSC[C@@H](C(=O)N[C@@H](C)C(N)=O)NC(=O)[C@H](CO)NC(=O)[C@H](C(C)C)NC(=O)[C@H](CC(C)C)NC(=O)[C@H](CC(N)=O)NC(=O)[C@H]2CCCN2C(=O)[C@H](C)N(C)C(=O)[C@H](C(C)C)NC(=O)[C@H](Cc2ccc(-c3ccccc3)cc2)NC1=O` [Example 1391] ({CH2CO}-[4Pal]Y(Carboxymethyl)DWL[Bip]V[NMeA][dP]NLVSCA-NH2; thioether N-14), for which the IC50 came out at 40 nM. In the case of `COc1cccc(C[C@@H]2NC(=O)[C@H](CC(=O)O)NC(=O)[C@H](Cc3cccc(C#N)c3)NC(=O)[C@H](Cc3ccncc3)NC(=O)CSC[C@@H](C(=O)N[C@@H](C)C(N)=O)NC(=O)[C@H](CO)NC(=O)[C@H](C(C)C)NC(=O)[C@H](CC(C)C)NC(=O)[C@H](CC(N)=O)NC(=O)CN(C)C(=O)[C@H](C)N(C)C(=O)[C@H](C(C)C)NC(=O)[C@H](Cc3ccc(-c4ccccc4)cc3)NC(=O)[C@H](CC(C)C)NC2=O)c1` [Example 1392] ({CH2CO}-[4Pal][Phe(3-CN)]D[Phe(3-OMe)]L[Bip]V[NMeA][Sar]NLVSCA-NH2; thioether N-14) it was 50 nM. For `COc1cccc(C[C@@H]2NC(=O)[C@H](CC(=O)O)NC(=O)[C@H](Cc3cccc(C#N)c3)NC(=O)[C@H](CN)NC(=O)CSC[C@@H](C(=O)N[C@@H](C)C(N)=O)NC(=O)[C@H](CO)NC(=O)[C@H](C(C)C)NC(=O)[C@H](CC(C)C)NC(=O)[C@H](CC(N)=O)NC(=O)[C@H]3CCCN3C(=O)[C@H](C)N(C)C(=O)[C@H](C(C)C)NC(=O)[C@H](Cc3ccc(-c4ccccc4)cc3)NC(=O)[C@H](CC(C)C)NC2=O)c1` [Example 1393] ({CH2CO}-[Dap][Phe(3-CN)]D[Phe(3-OMe)]L[Bip]V[NMeA][dP]NLVSCA-NH2; thioether N-14), the IC50 was found to be 20 nM.

`CC(C)C[C@@H]1NC(=O)[C@H](Cc2c[nH]c3ccccc23)NC(=O)[C@H](CC(=O)O)NC(=O)[C@H](Cc2ccc(O)cc2)NC(=O)[C@H](CN)NC(=O)CSC[C@@H](C(=O)N[C@@H](C)C(N)=O)NC(=O)[C@H](CO)NC(=O)[C@H](C(C)C)NC(=O)[C@H](CC(C)C)NC(=O)[C@H](CC(N)=O)NC(=O)[C@H]2CCCN2C(=O)[C@H](C)N(C)C(=O)[C@H](C(C)C)NC(=O)[C@H](Cc2ccc(-c3ccccc3)cc2)NC1=O` [Example 1394] ({CH2CO}-[Dap]YDWL[Bip]V[NMeA][dP]NLVSCA-NH2; thioether N-14): the half-inhibitory concentration (IC50) stood at 90 nM. With `CC(C)C[C@@H]1NC(=O)[C@H](Cc2c[nH]c3ccccc23)NC(=O)[C@H](CC(=O)O)NC(=O)[C@H](Cc2ccc(O)cc2)NC(=O)[C@H](Cc2ccccc2)NC(=O)CSC[C@@H](C(=O)NCC(N)=O)NC(=O)[C@H]([C@@H](C)O)NC(=O)[C@H](C(C)C)NC(=O)[C@H](CC(C)C)NC(=O)[C@H](CC(N)=O)NC(=O)[C@H]2CCCN2C(=O)[C@H](C)N(C)C(=O)[C@H](C(C)C)NC(=O)[C@H](Cc2ccc(-c3ccccc3)cc2)NC1=O` [Example 1395] ({CH2CO}-FYDWL[Bip]V[NMeA][dP]NLVTCG-NH2; thioether N-14), the IC50 was found to be 160 nM. The figure for `CC(C)C[C@@H]1NC(=O)[C@H](Cc2c[nH]c3ccccc23)NC(=O)[C@H](CC(=O)O)NC(=O)[C@H](Cc2ccc(O)cc2)NC(=O)[C@H](Cc2ccccc2)NC(=O)CSC[C@@H](C(=O)NCC(N)=O)NC(=O)[C@H]([C@@H](C)O)NC(=O)[C@H](C(C)C)NC(=O)[C@H](CC(C)C)NC(=O)[C@H](CCN)NC(=O)[C@H]2CCCN2C(=O)[C@H](C)N(C)C(=O)[C@H](C(C)C)NC(=O)[C@H](Cc2ccc(-c3ccccc3)cc2)NC1=O` [Example 1396] ({CH2CO}-FYDWL[Bip]V[NMeA][dP][Dab]LVTCG-NH2; thioether N-14) is 70 nM; for `CC(C)C[C@@H]1NC(=O)[C@H](Cc2c[nH]c3ccccc23)NC(=O)[C@H](CC(=O)O)NC(=O)[C@H](Cc2ccc(O)cc2)NC(=O)[C@H](Cc2ccccc2)NC(=O)CSC[C@@H](C(=O)N[C@@H](C)C(N)=O)NC(=O)[C@H](CO)NC(=O)[C@H](C(C)C)NC(=O)[C@H](CC(C)C)NC(=O)[C@H](CCN)NC(=O)[C@H]2CCCN2C(=O)[C@H](C)N(C)C(=O)[C@H](C(C)C)NC(=O)[C@H](Cc2ccc(-c3ccccc3)cc2)NC1=O` [Example 1397] ({CH2CO}-FYDWL[Bip]V[NMeA][dP][Dab]LVSCA-NH2; thioether N-14) it is 40 nM. As to `CC(C)C[C@@H]1NC(=O)[C@H](Cc2c[nH]c3ccccc23)NC(=O)[C@H](CC(=O)O)NC(=O)[C@H](Cc2ccc(O)cc2)NC(=O)[C@H](Cc2ccccc2)NC(=O)CSC[C@@H](C(=O)N[C@@H](C)C(N)=O)NC(=O)[C@H]([C@@H](C)O)NC(=O)[C@H](C(C)C)NC(=O)[C@H](CC(C)C)NC(=O)[C@H](CCN)NC(=O)[C@H]2CCCN2C(=O)[C@H](C)N(C)C(=O)[C@H](C(C)C)NC(=O)[C@H](Cc2ccc(-c3ccccc3)cc2)NC1=O` [Example 1398] ({CH2CO}-FYDWL[Bip]V[NMeA][dP][Dab]LVTCA-NH2; thioether N-14), the IC50 turned out to be 50 nM. Take `CC(C)C[C@@H]1NC(=O)[C@H](Cc2c[nH]c3ccccc23)NC(=O)[C@H](CC(=O)O)NC(=O)[C@H](Cc2ccc(O)cc2)NC(=O)[C@H](Cc2ccccc2)NC(=O)CSC[C@@H](C(=O)NCC(N)=O)NC(=O)[C@H](CO)NC(=O)[C@H](C(C)C)NC(=O)[C@H](CC(C)C)NC(=O)[C@H](CCN)NC(=O)[C@H]2CCCN2C(=O)[C@H](C)N(C)C(=O)[C@H](C(C)C)NC(=O)[C@H](Cc2ccc(-c3ccccc3)cc2)NC1=O` [Example 1399] ({CH2CO}-FYDWL[Bip]V[NMeA][dP][Dab]LVSCG-NH2; thioether N-14): the IC50 was 70 nM. Take `CC(C)C[C@@H]1NC(=O)[C@H](Cc2c[nH]c3ccccc23)NC(=O)[C@H](CC(=O)O)NC(=O)[C@H](Cc2ccc(O)cc2)NC(=O)[C@H](CC(N)=O)NC(=O)CSC[C@@H](C(=O)N[C@@H](C)C(N)=O)NC(=O)[C@H](CO)NC(=O)[C@H](C(C)C)NC(=O)[C@H](CC(C)C)NC(=O)[C@H](CCN)NC(=O)[C@H]2CCCN2C(=O)[C@H](CCCN)NC(=O)[C@H](C(C)C)NC(=O)[C@H](Cc2ccc(-c3ccccc3)cc2)NC1=O` [Example 1401] ({CH2CO}-NYDWL[Bip]V[Orn][dP][Dab]LVSCA-NH2; thioether N-14): the IC50 turned out to be 170 nM.
